# Test results from patent US20140356863A1, “METHODS FOR DETERMINING THE SUSCEPTIBILITY OF A VIRUS TO AN ATTACHMENT INHIBITOR” (BRISTOL-MYERS SQUIBB COMPANY, priority 2011, published 2014).
# Experiments:
# [1] = system: HIV-1 NL4-3 binding to sCD4-Fc; assay: immunoassay: virus capture by sCD4-Fc on protein G beads, quantitated by p24 ELISA; conditions: attachment inhibitor 0.5 uM, 15 min room temperature, FIG. 2
# Procedure: (§1) Two laboratory strains of HIV-1 were used in this assay, NL4-3, which is susceptible to the attachment inhibitor, the other is RF, which is insensitive to the action of the attachment inhibitor. The amount of virus present with and without attachment inhibitor (AI) is quantitated by a p24 ELISA.
# (§2) Virus stock was diluted to 1×10^4 TCID50 per ml in RPMI media with 10% fetal bovine serum (FBS). The attachment inhibitor (or DMSO) was added to a final concentration of 0.5 uM and the mixture incubated for 15 min at room temperature. Eighty microliters of sCD4-Fc (a recombinant protein containing the gp120 binding domain of CD4 connected to an immunoglobulin […]) at 5Oug/ml was added and incubated for an additional 30 min, with gentle rocking. Twenty microliters of protein G SEPHAROSE® beads (binding capacity of 200 ug IgG) was added and rocked at 4° C. for an additional 60 min. Unbound virus was removed by washing the beads 4 times with excess PBS. Virus captured on the beads was lysed with 0.5% Triton X-100 and the beads removed by centrifugation. The amount of virus present in the supernatant is quantitated by a p24 ELISA, according to the manufacturer's instructions (PerkinElmer NEK-050).
# [2] = system: HIV-1 RF strain binding to sCD4-Fc; assay: as above; conditions: attachment inhibitor 0.5 uM, 15 min room temperature, FIG. 2
# Procedure: as §1, §2
# HIV-1 RF strain = assay: susceptibility of HIV-1 strains to an attachment inhibitor (IC50, inhibition of virus replication); type: cell-based; conditions: Human immunodeficiency virus 1; HIV-1 laboratory strain RF
# Text: (§3) As used herein, “ICn” refers to Inhibitory Concentration. It is the concentration of drug in the patient's blood or in vitro needed to suppress the reproduction of a disease-causing virus (such as HIV) by n %. Thus, “IC50” refers to the concentration of an anti-viral agent at which virus replication is inhibited by 50% of the level observed in the absence of the drug.
# (§4) Two laboratory strains of HIV-1 were used in this assay.
# HIV-1 NL4-3 = assay: as above; type: cell-based; conditions: Human immunodeficiency virus 1, NL43; HIV-1 laboratory strain NL4-3
# Text: as §3, §4
structure (smiles),measurement,setting,value
"COc1cnc(-n2cnc(C)n2)c2[nH]cc(C(=O)C(=O)N3CCN(C(=O)c4ccccc4)CC3)c12 [attachment inhibitor, 1-(4-benzoyl-piperazin-1-yl)-2-[4-methoxy-7-(3-methyl-[1,2,4]triazol-1-yl)-1H-pyrralo[2,3-c]pyridine-3-yl]-ethane-1,2-dione]",amount of virus captured by sCD4-Fc (p24 ELISA) with attachment inhibitor versus DMSO,[1],much less than when DMSO is used
same,amount of virus captured by sCD4-Fc (p24 ELISA) with attachment inhibitor versus DMSO,[2],no significant difference
same,IC50,HIV-1 RF strain,> 2000 nM
same,IC50,HIV-1 NL4-3,2.2 ± 0.6 nM
